Test results as given in paper PMC7079562 (Bioorganic & Medicinal Chemistry, 2016).

Biological target: SARS-CoV 3CL^pro (Severe acute respiratory syndrome coronavirus, UniProt P0C6X7)
Assay type: biochemical

| SMILES | Inhibitory activity against SARS 3CLpro (in words) |
| --- | --- |
| CC1=NN(c2ccccc2)C(=O)/C1=C\c1ccc(-c2cc(Cl)ccc2C(=O)O)o1 [Compound 3e, 4-Chloro-2-(5-((3-methyl-5-oxo-1-phenyl-1,5-dihydro-4H-pyrazol-4-ylidene)methyl)furan-2-yl)benzoic acid] | unable to inhibit |
| O=C1/C(=C\c2ccc(-c3ccccc3)o2)C(c2ccccc2)=NN1c1ccccc1 [Compound 3j, 2,5-Diphenyl-4-((5-phenylfuran-2-yl)methylene)-2,4-dihydro-3H-pyrazol-3-one] | inactive |
| CC1=NN(c2cccc(C(=O)O)c2)C(=O)/C1=C\c1ccc(-c2ccccc2)o1 [Compound 3l, 3-(3-Methyl-5-oxo-4-((5-phenylfuran-2-yl)methylene)-4,5-dihydro-1H-pyrazol-1-yl)benzoic acid] | unable to inhibit |
